pIC50: −log10 of the molar value. Calls of active or inactive are those of the source. The calls are words filed in the database; no cut-off is given here.
Legend:
BV-2 [1] = assay: Suppression of LPS-induced morphological changes in mouse BV2 cells at 5 uM pre-incubated before LPS stimulation by phase contrast microscopy; type: functional, cell-based
[2] = Cytotoxicity in mouse BV2 cells assessed as cell viability at 100 uM incubated for 48 hrs by MTT assay (reference value: 100%); type: cell-based, BV-2; conditions: read-out: Activity
BV-2 [3] = assay: Inhibition of LPS-induced nitric oxide production in mouse BV2 cells assessed as nitric oxide level at 20 uM pre-incubated before LPS stimulation by Griess reagent based assay (reference value: 121.09%); type: functional; set-up: scale not given: the % may be the effect or the level left
[4] = Cytotoxicity in mouse BV2 cells assessed as cell viability at 5 uM incubated for 48 hrs by MTT assay (reference value: 100%); type: cell-based, BV-2; conditions: read-out: Activity
[5] = Cytotoxicity in mouse BV2 cells assessed as cell viability at 80 uM incubated for 48 hrs by MTT assay (reference value: 100%); type: cell-based, BV-2; conditions: read-out: Activity
BV-2 [6] = assay: Inhibition of LPS-induced IL6 production in mouse BV2 cells assessed as IL6 level at 20 uM pre-incubated before LPS stimulation by ELISA (reference value: 146.75%); type: functional; set-up: scale not given: the % may be the effect or the level left
[7] = biological target: T1, Prostaglandin G/H synthase 2 (Homo sapiens) (UniProt P35354); assay: Inhibition of COX2 (unknown origin) by immunoassay
T1 sequence (whole entry): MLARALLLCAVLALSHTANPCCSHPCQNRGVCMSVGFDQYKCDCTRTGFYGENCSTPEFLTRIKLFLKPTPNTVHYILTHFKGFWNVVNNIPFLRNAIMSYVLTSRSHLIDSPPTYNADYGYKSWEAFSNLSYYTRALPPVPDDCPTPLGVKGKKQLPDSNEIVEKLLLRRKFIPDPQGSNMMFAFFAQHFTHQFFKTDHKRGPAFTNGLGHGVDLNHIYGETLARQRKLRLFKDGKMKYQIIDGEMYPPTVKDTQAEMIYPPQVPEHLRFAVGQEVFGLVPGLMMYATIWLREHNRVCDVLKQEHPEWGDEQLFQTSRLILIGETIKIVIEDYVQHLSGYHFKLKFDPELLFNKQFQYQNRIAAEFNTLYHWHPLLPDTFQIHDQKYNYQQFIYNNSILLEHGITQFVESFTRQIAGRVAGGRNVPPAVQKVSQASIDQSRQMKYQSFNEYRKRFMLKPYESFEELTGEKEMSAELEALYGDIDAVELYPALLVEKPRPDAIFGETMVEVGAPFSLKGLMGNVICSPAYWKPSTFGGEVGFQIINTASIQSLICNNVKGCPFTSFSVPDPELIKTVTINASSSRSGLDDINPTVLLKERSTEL

[8] = Cytotoxicity in mouse BV2 cells assessed as cell viability at 15 uM incubated for 48 hrs by MTT assay (reference value: 100%); type: cell-based, BV-2; conditions: read-out: Activity
BV-2 [9] = assay: Inhibition of LPS-induced TNFalpha production in mouse BV2 cells assessed as TNFalpha level at 10 uM pre-incubated before LPS stimulation by ELISA (reference value: 142.71%); type: functional; set-up: scale not given: the % may be the effect or the level left
[10] = Cytotoxicity in mouse BV2 cells assessed as cell viability at 60 uM incubated for 48 hrs by MTT assay (reference value: 100%); type: cell-based, BV-2; conditions: read-out: Activity
BV-2 [11] = assay: Suppression of LPS-induced morphological changes in mouse BV2 cells at 10 uM pre-incubated before LPS stimulation by phase contrast microscopy; type: functional, cell-based
[12] = Cytotoxicity in mouse BV2 cells assessed as cell viability at 10 uM incubated for 48 hrs by MTT assay (reference value: 100%); type: cell-based, BV-2; conditions: read-out: Activity
[13] = Cytotoxicity in mouse BV2 cells assessed as cell viability at 0.5 uM incubated for 48 hrs by MTT assay (reference value: 100%); type: cell-based, BV-2; conditions: read-out: Activity
BV-2 [14] = assay: Inhibition of LPS-induced TNFalpha production in mouse BV2 cells assessed as TNFalpha level at 20 uM pre-incubated before LPS stimulation by ELISA (reference value: 142.71%); type: functional; set-up: scale not given: the % may be the effect or the level left
[15] = Cytotoxicity in mouse BV2 cells assessed as cell viability at 40 uM incubated for 48 hrs by MTT assay (reference value: 100%); type: cell-based, BV-2; conditions: read-out: Activity
BV-2 [16] = assay: Inhibition of LPS-induced nitric oxide production in mouse BV2 cells assessed as nitric oxide level at 10 uM pre-incubated before LPS stimulation by Griess reagent based assay (reference value: 121.09%); type: functional; set-up: scale not given: the % may be the effect or the level left
[17] = Cytotoxicity in mouse BV2 cells assessed as cell viability at 1 uM incubated for 48 hrs by MTT assay (reference value: 100%); type: cell-based, BV-2; conditions: read-out: Activity
BV-2 [18] = assay: Inhibition of LPS-induced IL6 production in mouse BV2 cells assessed as IL6 level at 10 uM pre-incubated before LPS stimulation by ELISA (reference value: 146.75%); type: functional; set-up: scale not given: the % may be the effect or the level left
[19] = Cytotoxicity in mouse BV2 cells assessed as cell viability at 20 uM incubated for 48 hrs by MTT assay (reference value: 100%); type: cell-based, BV-2; conditions: read-out: Activity
BV-2 [20] = assay: Cytotoxicity in mouse BV2 cells assessed as reduction in cell viability incubated for 48 hrs by MTT assay; type: cell-based; conditions: BV-2, 48 h
BV-2 [21] = assay: Inhibition of LPS-induced IL6 production in mouse BV2 cells at 20 uM pre-incubated before LPS stimulation by ELISA; type: functional
BV-2 [22] = assay: Inhibition of LPS-induced IL6 production in mouse BV2 cells at 10 uM pre-incubated before LPS stimulation by ELISA; type: functional
BV-2 [23] = assay: Inhibition of LPS-induced TNFalpha production in mouse BV2 cells at 20 uM pre-incubated before LPS stimulation by ELISA; type: functional
BV-2 [24] = assay: Inhibition of LPS-induced MMP2 production production in mouse BV2 cells assessed as MMP2 protein level pre-incubated before LPS stimulation by gelatin zymography (reference value: 105.071%); type: functional; set-up: scale not given: the % may be the effect or the level left
BV-2 [25] = assay: Inhibition of LPS-induced MMP9 production production in mouse BV2 cells assessed as MMP9 protein level pre-incubated before LPS stimulation by gelatin zymography (reference value: 105.113%); type: functional; set-up: scale not given: the % may be the effect or the level left
Mus musculus = organism: Mus musculus; assay: Inhibition of LPS-induced NFkappaB nuclear translocation in mouse BV2 cells pre-incubated before LPS stimulation by immunostaining based confocal laser microscopy; type: cell-based
[26] = biological target: Transcription factor Jun (Mus musculus) (UniProt P05627); assay: Inhibition of LPS-induced AP1 nuclear translocation in mouse BV2 cells pre-incubated before LPS stimulation by immunostaining based confocal laser microscopy; type: cell-based
Sequence of Transcription factor Jun (Mus musculus) (P05627 whole entry): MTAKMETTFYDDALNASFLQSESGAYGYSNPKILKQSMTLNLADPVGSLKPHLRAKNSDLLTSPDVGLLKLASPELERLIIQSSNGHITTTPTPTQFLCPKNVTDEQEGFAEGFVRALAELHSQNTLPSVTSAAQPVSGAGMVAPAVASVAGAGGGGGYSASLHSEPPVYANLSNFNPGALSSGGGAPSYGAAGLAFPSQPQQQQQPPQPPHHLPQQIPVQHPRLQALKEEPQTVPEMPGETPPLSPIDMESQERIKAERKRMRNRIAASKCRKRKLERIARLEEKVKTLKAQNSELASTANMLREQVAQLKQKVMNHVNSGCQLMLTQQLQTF

BV-2 [27] = assay: Inhibition of LPS-induced TNFalpha production in mouse BV2 cells at 10 uM pre-incubated before LPS stimulation by ELISA; type: functional
BV-2 [28] = assay: Inhibition of LPS-induced TNFalpha production in mouse BV2 cells at 100 uM pre-incubated before LPS stimulation by ELISA; type: functional
BV-2 [29] = assay: Suppression of LPS-induced morphological changes in mouse BV2 cells at 1 to 20 uM pre-incubated before LPS stimulation by phase contrast microscopy; type: functional, cell-based

inhibition [7] | Structure (SMILES) | Activity (BV-2 [1]) | viability at 48 h, 100 µM [2] | Activity (BV-2 [3]) | viability at 48 h, 5 µM [4] | viability at 48 h, 80 µM [5] | Activity (BV-2 [6]) | viability at 48 h, 15 µM [8] | Activity (BV-2 [9]) | viability at 48 h, 60 µM [10] | Activity (BV-2 [11]) | viability at 48 h, 10 µM [12] | viability at 48 h, 0.5 µM [13] | Activity (BV-2 [14]) | viability at 48 h, 40 µM [15] | Activity (BV-2 [16]) | viability at 48 h, 1 µM [17] | Activity (BV-2 [18]) | viability at 48 h, 20 µM [19] | pIC50 (BV-2 [20]) | further results
inactive | O=C1COCCN1c1ccc(/N=C\c2cn(Cc3ccccc3)c3ccccc23)cc1 | Active | 56.2% | 103.8462% | 84% | 58.7% | 181.9833% | 95.7% | 217.4584% | 65% | Active | 91.3% | 86.6% | 183.8555% | 69.5% | 129.638% | 89.3% | 265.8219% | 87.8% | < 4.00 | 
inactive | Cc1ccc(S(=O)(=O)n2cc(/C=N\c3ccc(N4CCOCC4=O)cc3)c3ccccc32)cc1 | Active | 57.4% | 108.2579% | 89.1% | 57.8% | 94.84% | 71% | 90.58% | 56% | Active | 86.4% | 90.9% | 70.48% | 58.1% | 108.5973% | 92.1% | 101.2128% | 56.7% | < 4.00 | inhibition at 20 µM (BV-2 [21]): 35.4%; inhibition at 10 µM (BV-2 [22]): 31%; inhibition at 20 µM (BV-2 [23]): 50.6%; Activity (BV-2 [24]): 96.245%; Activity (BV-2 [25]): 95.906%; inhibition (Mus musculus): Active; inhibition [26]: Active; inhibition at 10 µM (BV-2 [27]): 36.5%
 | COc1ccc2c(c1)c(CC(=O)O)c(C)n2C(=O)c1ccc(Cl)cc1 [INDOMETHACIN] |  |  |  |  |  |  |  |  |  |  |  |  |  |  |  |  |  |  |  | inhibition at 100 µM (BV-2 [28]): 50%
inactive | O=C1COCCN1c1ccc(/N=C\c2cn(Cc3ccc(F)cc3)c3ccccc23)cc1 |  | 55.5% |  | 69.3% | 59% |  | 86.1% |  | 67.4% | inactive | 90% | 102% |  | 77.7% |  | 87.8% |  | 84.2% | < 4.00 | Activity (BV-2 [29]): inactive
